The values that follow are results of earlier work, collected in US8338628B2, “Method of synthesizing alkylated bile acid derivatives” (City of Hope, priority 2007, dated 2012).

Each structure is given as a SMILES string.

For data set [1] the following is noted: background statement.
The test system of data set [2] is FXR. The settings on record: in vivo; recent studies.
Data set [3] deals with T1, farnesoid X receptor (FXR) (Homo sapiens, UniProt Q96RI1).
T1 sequence (Q96RI1 1-486): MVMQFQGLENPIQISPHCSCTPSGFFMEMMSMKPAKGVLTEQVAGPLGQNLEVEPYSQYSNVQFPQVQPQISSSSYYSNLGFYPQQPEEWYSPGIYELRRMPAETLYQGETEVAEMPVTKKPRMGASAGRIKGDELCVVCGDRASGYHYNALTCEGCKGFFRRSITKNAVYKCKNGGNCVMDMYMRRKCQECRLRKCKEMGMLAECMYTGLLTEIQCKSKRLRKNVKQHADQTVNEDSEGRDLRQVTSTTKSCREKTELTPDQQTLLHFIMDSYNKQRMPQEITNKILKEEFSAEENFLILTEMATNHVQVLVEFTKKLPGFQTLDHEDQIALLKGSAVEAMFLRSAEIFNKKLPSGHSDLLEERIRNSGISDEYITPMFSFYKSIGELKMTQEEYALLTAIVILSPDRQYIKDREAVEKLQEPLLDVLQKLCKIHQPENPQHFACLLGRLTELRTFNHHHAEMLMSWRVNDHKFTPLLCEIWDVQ
The settings on record: background statement.

Turning to `CC[C@H]1[C@@H](O)[C@@H]2[C@H](CC[C@]3(C)[C@@H]([C@H](C)CCC(=O)O)CC[C@@H]23)[C@@]2(C)CC[C@@H](O)C[C@@H]12` [Compound 6-ECDCA, 3α,7α-Dihydroxy-6α-ethyl-5β-cholan-24-oic acid], the “pharmacokinetic properties (in words)” value in data set [1] was “improved pharmacokinetic properties relative to GW4064”.

With `CC(C)c1onc(-c2c(Cl)cccc2Cl)c1COc1ccc(/C=C/c2cccc(C(=O)O)c2)c(Cl)c1` [GW4064], in data set [2], the HDL-cholesterol entry was “increases HDL-cholesterol” and the plasma triglycerides entry is on record as “reduces plasma triglycerides”. In addition, the “pharmacokinetic properties (in words)” value in data set [1] was “very poor pharmacokinetic properties”.

`C[C@H](CCC(=O)O)[C@H]1CC[C@H]2[C@@H]3[C@H](O)C[C@@H]4C[C@H](O)CC[C@]4(C)[C@H]3C[C@H](O)[C@]12C` [cholic acid]: in data set [3], the “FXR activation (in words)” value is “activate FXR”.
